In patent US20030134779A1, “Method and composition for treatment and/or prevention of antibiotic-resistant microorganism infections” (priority 2002, published 2003):
Read-outs that look alike come from different tables or passages of the source.

Legend:
[1] = system: S. aureus NCTC; test: MIC of penicillin G alone or with bovine LF, macrodilution; format: cell-based; conditions: Staphylococcus aureus, strain β-lactamase +A
Text: (§1) Staphylococcus aureus strains ATCC 25923 and 6538 and Escherichia coli ATCC 25922 were obtained from the American Type Culture Collection. Eight bovine mastitis clinical isolates of S. aureus (SHY97-3906, -3923, -4085 -4242, -4320 and -4343, RFT-1 and RFT-5) and one isolate of E. coli SHY97-3923-2 and one isolate of Kiebsiella pneumoniae SHY99-723-1 were kindly provided by the Laboratoire Provincial de Pathologie Animale of St-Hyacinthe and of Rock-Forest (Quebec, Canada), respectively. Nine β-lactam antibiotics resistant S. aureus strains (PC-1, NCTC 9789, 2076, 22260, ST79/741, 3804, RN9, FAR8, and FAR10) were obtained from Vanderbilt University School of Medicine (Nashville, Tenn., USA). All the culture media were from Difco Laboratories (Detroit, Mich.). Bacteria from frozen stock at −80° C. were streaked onto tryptic soy agar plates suplemented with 5% of defibrinated sheep blood (Quelab, Montreal, QC, Canada) or Brain Heart infusion agar plates. Plates were then incubated for 16 to 24 h at 37° C. For most experiments, the strains were subcultured onto Mueller Hinton agar plates (MHA) or broth (MHB) for an additional 16-20 h. Aqueous solutions of the tested products were added by filtration through a sterile filter assembly (pore size 0.2 μm, Fisher, Ottawa, Ontario).
(§2) The MICs were determined by both macrodilution (1 ml/tube) and microdilution (100 μl/well) in sterile 96 well microtiter plates (International Nunc, Napierville, Ill.) techniques in three separate experiments according to the National Committee for Clinical Laboratory Standards (1992 and 1999) in three separate experiments. Serial 2-fold dilutions in MHB of LF, LFC, antibiotic or combination of LF or LFC with antibiotic were inoculated with an overnight culture at a final inoculum of 10^6 cfu/ml in MHB. Effect of LF combination with antibiotic on MICs were determined by adding 0.5 mg or 1 mg/ml of LF to each antibiotic dilution. The MIC was defined as the lowest concentration of drug (highest dilution) that caused a complete inhibition of bacterial growth after an incubation of 18 h. Effect of LF or LFC combination with antibiotic on MIC was also determined by checkerboard method using 96 well microtiter plates. Each antibiotic dilution (50 μl) was serially added to the wells in vertical rows starting from the top (lower dilution) to the bottom. Lactoferrin or LFC (50 μl) were added to 50 μl of each antibiotic dilution and serially diluted starting at the left (lower dilution) to the right. After inoculation, the final concentration of antibiotic from top to bottom were 32 to 8, 2 to 0.5, 0.5 to 0.125 μg/ml for penicillin, cefazolin and neomycin, respectively. From left to right, the concentration of LF or LFC were 25 to 0.0244 mg/ml or 256 to 0.5 μg/ml respectively in a final volume of 100 μl/well. The microplate's were incubated at 37° C. for 24 h. Bacterial growth was measured optically at 540 nm using Spectra Max 250 Microplate Spectrophotometer System of Molecular Device (Fisher Scientific, Ottawa, Canada). Tubes were incubated at 37° C. for 18 h and bacterial growth was measured by visual examination and optically at 540 nm using a spectrophotometer (Philips PU 8800; Pye Unican Ltd, Cambridge, UK). The fractional inhibitory concentration (FIC) was calculated as described by Eliopoulos and Moellering (1991).

[2] = system: S. aureus PC-1; test: as above; format: cell-based; conditions: Staphylococcus aureus, strain β-lactamase +A constitutive
Text: as §1, §2

[3] = system: S. aureus ATCC 25923; test: as above; format: cell-based; conditions: Staphylococcus aureus, strain β-lactamase type −, read-out: MICs of penicillin G
Text: as §1, §2

[4] = system: S. aureus SHY97-3906; test: as above; format: cell-based; conditions: Staphylococcus aureus, strain β-lactamase + uncharacterised, read-out: MICs of penicillin G
Text: as §1, §2

[5] = system: S. aureus 22260; test: as above; format: cell-based, Staphylococcus aureus; conditions: strain β-lactamase +B, read-out: MICs of penicillin G
Text: as §1, §2

[6] = system: S. aureus RN 9; test: as above; format: cell-based, Staphylococcus aureus; conditions: strain β-lactamase +C; for MIC: Staphylococcus aureus
Text: as §1, §2

[7] = system: S. aureus 3804^f; test: as above; format: cell-based, Staphylococcus aureus; conditions: strain β-lactamase +C; for MIC: Staphylococcus aureus
Text: as §1, §2

[8] = system: S. aureus 2076; test: as above; format: cell-based, Staphylococcus aureus; conditions: strain β-lactamase +A, read-out: MICs of penicillin G
Text: as §1, §2

[9] = system: S. aureus SHY97-4320; test: SDS-PAGE protein profile of whole cells; format: cell-based, Staphylococcus aureus; conditions: compound alone: 8 μg/ml penicillin G or 1 mg/ml LF; 4-h of growth
Experimental: Staphylococcus aureus SHY97-4320 cells growth in MHB containing test compounds were suspended in electrophoresis sample buffer containing 2% sodium dodecyl sulfate (SDS) and 5% 2-mercaptoethanol to a final concentration of 0.1 g per ml. The samples were heated to 100° C. for 5 min before being loaded for electrophoresis on a discontinuous 0.1% SDS-polyacrylamide gel (SDS PAGE) with 6% polyacrylamide stacking gel and 10 or 12% polyacrylamide running gel. Gels were run on a Mini-Protean® II apparatus (Bio Rad laboratories, Richmond, Calif.). Protein profiles were visualised by staining with coomassie brilliant blue R-250 or by silver staining.

[10] = read-out: MICs of penicillin G, Alone

CC1(C)S[C@@H]2[C@H](NC(=O)Cc3ccccc3)C(=O)N2[C@H]1C(=O)O [penicillin G, Penicillin G]
MIC ([1]; read-out: MICs of penicillin G, +0.5 mg/ml LF): 128 µg/mL
MIC ([1]; read-out: MICs of penicillin G, +1 mg/ml LF): 128 µg/mL
MIC [1, 10]: > 128 µg/mL
MIC ([2]; PC1, read-out: MICs of penicillin G, +0.5 mg/ml LF): 128 µg/mL
MIC ([2]; PC1, read-out: MICs of penicillin G, +1 mg/ml LF): 128 µg/mL
MIC ([2]; PC1, read-out: MICs of penicillin G, Alone): > 128 µg/mL
MIC ([3]; ATCC25923, +0.5 mg/ml LF): 0.031 µg/mL
MIC ([3]; ATCC25923, +1 mg/ml LF): 0.015 µg/mL
MIC ([3]; ATCC25923, Alone): 0.031 µg/mL
MIC ([4]; SHY973906, +0.5 mg/ml LF): 0.5 µg/mL
MIC ([4]; SHY973906, +1 mg/ml LF): 0.25 µg/mL
MIC ([4]; SHY973906, Alone): 0.5 µg/mL
MIC ([5]; Staphylococcus aureus, 22260, +0.5 mg/ml LF): 16 µg/mL
MIC ([5]; Staphylococcus aureus, 22260, +1 mg/ml LF): 16 µg/mL
MIC ([5]; Staphylococcus aureus, 22260, Alone): 32 µg/mL
MICs of penicillin G ([6]; +1 mg/ml LF): 64 µg/mL
MIC ([6]; RN9, read-out: MICs of penicillin G, Alone): 128 µg/mL
MIC ([6]; RN9, +0.5 mg/ml LF, read-out: MICs of penicillin G): 64 µg/mL
MICs of penicillin G ([7]; +1 mg/ml LF): 64 µg/mL
MIC [7, 10]: 128 µg/mL
MIC ([7]; +0.5 mg/ml LF, read-out: MICs of penicillin G): 64 µg/mL
MIC ([8]; Staphylococcus aureus, 2076, +0.5 mg/ml LF): 0.25 µg/mL
MIC ([8]; Staphylococcus aureus, 2076, +1 mg/ml LF): 0.25 µg/mL
MIC ([8]; Staphylococcus aureus, 2076, Alone): 0.5 µg/mL
proteins of approximately 59, 42 and 27 kDa in protein profile [9]: can be seen
